Experimental data: patent EP0837071A1, “Tripeptide antithrombotic agents” (ELI LILLY AND COMPANY, priority 1990, dated 1992)
Structures can show the parent of a compound that is named as a salt. Where two headings read alike, the source gives them in different places. Square brackets hold non-standard residues; d marks the D form. Peptide text beside a SMILES is read from it. * marks the point of attachment. dPhg = N[C@@H](C(=O)O)c1ccccc1; Boc = CC(C)(C)OC(=O)*

Experiments:
[1] = test system: Arterial Thrombosis in the Rat; assay: FeCl3-induced arterial thrombosis in the carotid artery of the rat; type: in vivo; settings: infusion from 15 min before to 60 min after FeCl3 application, NA = Not active at 4 mg/kg/h or at 7 mg/kg/h, the highest doses tested
bovine thrombin [2] = biological target: T1, bovine thrombin (Bos taurus, UniProt P00735); assay: Thrombin time in buffer (fibrinogen instead of plasma); type: biochemical; settings: for Buffer (pH 7.5) Thrombin Time: concentration of test compounds required to prolong coagulation by 2-fold: buffer pH 7.5, fibrinogen instead of plasma
T1 construct: 50 µl bovine thrombin (2 NIH unit/ml)
Procedure: (§1) The numerical values in the table are the concentrations of the test compounds (ng/ml) required to prolong coagulation by 2-fold in the three tests. The thrombin time evaluation was carried out in plasma and separately determined in a buffer system at […].
(§2) The data presented in Table 2 were obtained using a CoaScreener instrument from Tecan, Inc. in the assay protocols listed below. Prothrombin Time: 50 µl plasma 50 µl saline 7 µl test solution 50 µl thromboplastin (Dade) Thrombin Time: 50 µl plasma 50 µl saline 7 µl test compound 50 µl bovine thrombin (2 NIH unit/ml) In the Thrombin Time determined in pH 7.4 buffer fibrinogen was used instead of plasma. APTT: 50 µl plasma 50 µl Actin (Dade) 7 µl test solution 50 µl CaCl2 (0.01M).

thrombin = biological target: T2, thrombin (Bos taurus, UniProt P00735); assay: Inhibition of thrombin amidase activity (chromogenic substrate N-benzoyl-D-phenylalanyl-L-valyl-L-arginyl-p-nitroanilide); type: biochemical
T2 construct: purchased
Procedure: The data in the table were obtained in an assay in which thrombin hydrolyzes the chromogenic substrate, N-benzoyl-D-phenylalanyl-L-valyl-L-arginyl-p-nitroanilide.
The assay was carried out in 50 µl buffer (0.03M Tris, 0.15M NaCl, pH 7.4) with 25 µl of thrombin solution (0.21 mg/ml of thrombostat powder in 0.06 M Tris, 0.3M NaCl, pH 7.4) and 150 µl of an aqueous solution of the chromogenic substrate at a concentration of 0.25 mg/ml. Solutions of test compound (25 µl) at various concentrations were added. […] Standard curves were constructed by plotting free thrombin concentration against hydrolysis rate. […] The amount of free inhibitor in each assay was calculated by subtracting the number of moles of bound thrombin from the number of moles of added inhibitor (test compound).
The Kass value is the hypothetical equilibrium constant for the reaction between thrombin and the test compouhnd (I). Thrombin + I ⇄ Thrombin - I [formula] Kass =([Thrombin I])/([ (Thrombin) x (I) ]) [formula]
Kass was calculated for a range of concentrations of test compounds and the mean value is reported in units of liter per mole.

plasma [3] = assay: Plasma coagulation assay: prothrombin time; type: biochemical; settings: thromboplastin (Dade)
Procedure: as §1, §2

plasma [4] = assay: Plasma coagulation assay: activated partial thromboplastin time (APTT); type: biochemical; settings: Actin (Dade), CaCl2
Procedure: as §1, §2

bovine thrombin [5] = biological target: T1, bovine thrombin; assay: Plasma coagulation assay: thrombin time; type: biochemical; settings: for Thrombin Time: concentration of test compounds required to prolong coagulation by 2-fold: plasma, bovine thrombin (2 NIH unit/ml)
Procedure: as §1, §2

In the case of `CC(C)(C)OC(=O)NC(C(=O)N1CCC[C@H]1C(=O)N[C@H](C=O)CCCNC(=N)N)c1cccc2ccccc12` (mixture of isomers) [N-Boc-DL-1-naphthylglycyl], the “ED50 (infusion dose required to maintain blood flow for 50 min)” value (“ED50” below) [1] is reported as 5.5 mg/kg/h, the “Buffer (pH 7.5) Thrombin Time: concentration of test compounds required to prolong coagulation by 2-fold” value (bovine thrombin [2]) is reported as 112 ng/ml and the Kd (thrombin; apparent equilibrium (association) constant, mean over a range of concentrations, pH 7.4, acetate salts unless indicated otherwise, read-out: Thrombin Amidase Kass (converted)) is reported as 55.2 nM. For the same compound, the “Prothrombin Time: concentration of test compounds required to prolong coagulation by 2-fold” value (from here on “Prothrombin Time: concentration … by 2-fold”) (plasma [3]) was 1136 ng/mL, the “APTT: concentration of test compounds required to prolong coagulation by 2-fold” value (“APTT: concentration … by 2-fold” below) (plasma [4]) was 2272 ng/mL and the “Thrombin Time: concentration of test compounds required to prolong coagulation by 2-fold” value (bovine thrombin [5]) was 320 ng/mL.
`CC(C)(C)OC(=O)N[C@@H](C(=O)N1CCC[C@H]1C(=O)N[C@H](C=O)CCCNC(=N)N)c1cccc2ccccc12` [N-Boc-D-1-naphthylglycyl, N-Boc-D-1-naphthylglycyl-Pro-Arg-H diacetate] was tested, and the “ED50” value [1] was 6.4 mg/kg/h, the “Buffer (pH 7.5) Thrombin Time: concentration of test compounds required to prolong coagulation by 2-fold” value (bovine thrombin [2]) was 105 ng/ml and the Kd (thrombin) was 19.2 nM. For the same compound, the “Prothrombin Time: concentration … by 2-fold” value (plasma [3]) was 1225 ng/mL, the “APTT: concentration … by 2-fold” value (plasma [4]) was 3100 ng/mL and the “Thrombin Time: concentration of test compounds required to prolong coagulation by 2-fold” value (bovine thrombin [5]) was 230 ng/mL.
`CC(C)(C)OC(=O)N[C@@H](C(=O)N1CCC[C@H]1C(=O)N[C@H](C=O)CCCNC(=N)N)c1ccccc1` [N-Boc-D-phenylglycyl, N-(t-Butyloxycarbonyl)-D-phenylglycyl-L-Prolyl-L-Arginine aldehyde (Boc-D-Phg-Pro-Arg-H) diacetate salt] (Boc-[dPhg]-Pro-Arg-aldehyde) was tested, and the “ED50” value [1] was 2.9 mg/kg/h, the EC (2-fold clotting time) (bovine thrombin [2]; pH 7.5, read-out: Buffer (pH 7.5) Thrombin Time: concentration of test compounds required to prolong coagulation by 2-fold) was 0.118 µg/mL and the “Prothrombin Time: concentration … by 2-fold” value (plasma [3]) was 667 ng/mL. For the same compound, the “APTT: concentration … by 2-fold” value (plasma [4]) was 1169 ng/mL and the EC (2-fold clotting time) (bovine thrombin [5]; read-out: Thrombin Time: concentration of test compounds required to prolong coagulation by 2-fold) was 0.11 µg/mL.
